Assay [1] deals with T1, Muscarinic acetylcholine receptor M2 (Homo sapiens, UniProt P08172).
T1 sequence (P08172 whole entry): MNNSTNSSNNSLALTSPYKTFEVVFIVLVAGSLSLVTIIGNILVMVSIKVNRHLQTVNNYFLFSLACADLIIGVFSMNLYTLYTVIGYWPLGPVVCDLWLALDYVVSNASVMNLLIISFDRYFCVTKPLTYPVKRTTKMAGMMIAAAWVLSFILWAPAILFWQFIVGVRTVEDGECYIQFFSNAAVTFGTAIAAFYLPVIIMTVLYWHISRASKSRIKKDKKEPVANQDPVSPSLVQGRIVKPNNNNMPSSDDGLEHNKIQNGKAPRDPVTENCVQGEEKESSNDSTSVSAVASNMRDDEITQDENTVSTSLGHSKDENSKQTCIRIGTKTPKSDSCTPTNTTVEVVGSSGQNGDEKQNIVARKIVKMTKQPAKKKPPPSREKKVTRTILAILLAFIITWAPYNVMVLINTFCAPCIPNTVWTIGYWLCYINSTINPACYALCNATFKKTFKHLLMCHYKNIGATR
The format is functional, cell-based.

For assay [2], the target named is T2, Progesterone receptor (Homo sapiens, UniProt P06401).
T2 sequence (P06401 whole entry): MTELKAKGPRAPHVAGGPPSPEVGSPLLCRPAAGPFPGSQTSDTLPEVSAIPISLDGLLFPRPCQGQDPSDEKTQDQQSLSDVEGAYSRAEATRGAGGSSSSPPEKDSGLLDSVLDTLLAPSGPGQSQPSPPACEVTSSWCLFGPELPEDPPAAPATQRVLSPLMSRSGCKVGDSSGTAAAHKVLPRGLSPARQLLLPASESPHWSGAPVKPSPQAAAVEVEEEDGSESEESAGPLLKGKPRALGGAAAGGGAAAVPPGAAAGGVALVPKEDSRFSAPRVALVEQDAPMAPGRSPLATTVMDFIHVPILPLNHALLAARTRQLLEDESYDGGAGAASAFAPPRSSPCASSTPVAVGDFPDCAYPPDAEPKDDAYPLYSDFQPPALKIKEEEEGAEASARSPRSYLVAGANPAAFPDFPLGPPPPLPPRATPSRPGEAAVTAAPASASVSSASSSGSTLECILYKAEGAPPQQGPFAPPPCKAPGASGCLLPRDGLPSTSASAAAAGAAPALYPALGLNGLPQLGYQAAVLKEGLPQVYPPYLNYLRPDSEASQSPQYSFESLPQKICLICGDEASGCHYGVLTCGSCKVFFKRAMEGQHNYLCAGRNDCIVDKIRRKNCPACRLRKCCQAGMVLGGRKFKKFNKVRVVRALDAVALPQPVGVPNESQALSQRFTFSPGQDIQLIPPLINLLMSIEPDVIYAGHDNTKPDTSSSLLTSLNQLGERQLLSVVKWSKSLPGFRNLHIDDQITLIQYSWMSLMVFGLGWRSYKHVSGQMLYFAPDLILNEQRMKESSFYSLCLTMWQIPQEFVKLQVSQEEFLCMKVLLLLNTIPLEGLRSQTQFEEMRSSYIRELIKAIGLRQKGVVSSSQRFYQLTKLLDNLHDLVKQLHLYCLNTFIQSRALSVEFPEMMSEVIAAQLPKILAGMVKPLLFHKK
The format is functional.

The target of assay [3] is 3',5'-cyclic-AMP phosphodiesterase 4D (Homo sapiens, UniProt Q08499). The format is functional.
Assay [4] deals with T3, Prostaglandin G/H synthase 1 (Rattus norvegicus, UniProt Q63921).
T3 sequence (Q63921 whole entry): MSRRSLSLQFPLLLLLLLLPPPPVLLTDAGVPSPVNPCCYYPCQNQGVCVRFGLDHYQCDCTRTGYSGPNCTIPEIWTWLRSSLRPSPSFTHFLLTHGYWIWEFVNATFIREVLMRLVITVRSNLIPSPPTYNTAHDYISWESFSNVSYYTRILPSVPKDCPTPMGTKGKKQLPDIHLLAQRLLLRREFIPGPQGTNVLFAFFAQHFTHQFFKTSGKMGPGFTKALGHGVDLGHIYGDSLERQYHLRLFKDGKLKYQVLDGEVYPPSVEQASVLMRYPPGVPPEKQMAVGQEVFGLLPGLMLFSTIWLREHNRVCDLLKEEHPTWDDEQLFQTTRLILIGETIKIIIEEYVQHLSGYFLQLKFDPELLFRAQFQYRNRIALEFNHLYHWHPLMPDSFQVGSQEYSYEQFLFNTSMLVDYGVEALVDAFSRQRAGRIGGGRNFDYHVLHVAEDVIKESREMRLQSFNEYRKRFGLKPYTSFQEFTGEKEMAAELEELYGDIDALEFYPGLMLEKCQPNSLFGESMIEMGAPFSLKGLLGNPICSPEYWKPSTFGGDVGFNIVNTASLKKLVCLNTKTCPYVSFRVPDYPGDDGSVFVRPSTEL
In kind it is functional.

Assay [5] has as its target Vasopressin V1a receptor (Homo sapiens, UniProt P37288).
Assay [6] concerns the target Melanocortin receptor 3 (Homo sapiens, UniProt P41968).
For assay [7], the target named is T4, Adenosine receptor A1 (Homo sapiens, UniProt P30542).
T4 sequence (P30542 whole entry): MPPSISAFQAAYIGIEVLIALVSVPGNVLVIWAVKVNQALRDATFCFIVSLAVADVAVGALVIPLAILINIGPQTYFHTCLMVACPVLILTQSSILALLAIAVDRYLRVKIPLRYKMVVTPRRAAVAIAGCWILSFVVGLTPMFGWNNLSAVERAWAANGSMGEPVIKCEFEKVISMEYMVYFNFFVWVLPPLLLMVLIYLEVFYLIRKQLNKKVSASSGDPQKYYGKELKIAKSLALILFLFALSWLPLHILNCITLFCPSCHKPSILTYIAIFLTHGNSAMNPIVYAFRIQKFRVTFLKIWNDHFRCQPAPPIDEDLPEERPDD

Assay [8] deals with T5, Gastrin/cholecystokinin type B receptor (Homo sapiens, UniProt P32239).
T5 sequence (P32239 whole entry): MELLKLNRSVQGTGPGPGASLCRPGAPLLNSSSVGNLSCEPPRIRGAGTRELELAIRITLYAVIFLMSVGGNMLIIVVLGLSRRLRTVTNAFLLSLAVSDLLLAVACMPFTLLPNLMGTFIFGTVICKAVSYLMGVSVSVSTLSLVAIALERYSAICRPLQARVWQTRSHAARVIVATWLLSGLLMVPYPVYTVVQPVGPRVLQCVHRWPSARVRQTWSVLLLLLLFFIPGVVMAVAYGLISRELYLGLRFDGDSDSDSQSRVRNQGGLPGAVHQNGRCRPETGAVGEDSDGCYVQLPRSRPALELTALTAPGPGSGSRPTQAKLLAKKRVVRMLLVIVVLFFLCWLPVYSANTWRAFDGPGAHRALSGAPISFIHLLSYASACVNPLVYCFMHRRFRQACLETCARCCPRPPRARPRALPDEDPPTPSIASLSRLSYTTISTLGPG

Bounds are passed on as bounds.
Further: assay procedure not described here.

Vasopressin V1a receptor, sequence (P37288 whole entry): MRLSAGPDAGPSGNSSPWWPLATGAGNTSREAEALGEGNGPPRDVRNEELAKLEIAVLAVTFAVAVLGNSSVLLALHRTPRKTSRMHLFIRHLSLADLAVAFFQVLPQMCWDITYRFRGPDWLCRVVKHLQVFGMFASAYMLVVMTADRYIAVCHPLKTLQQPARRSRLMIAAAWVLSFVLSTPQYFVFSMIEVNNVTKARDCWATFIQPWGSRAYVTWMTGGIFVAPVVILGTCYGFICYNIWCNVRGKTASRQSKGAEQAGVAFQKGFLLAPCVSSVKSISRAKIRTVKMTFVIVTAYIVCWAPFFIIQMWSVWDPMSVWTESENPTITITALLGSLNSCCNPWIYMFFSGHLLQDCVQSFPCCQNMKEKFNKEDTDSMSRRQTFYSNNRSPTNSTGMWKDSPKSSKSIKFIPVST
Melanocortin receptor 3, sequence (P41968 whole entry): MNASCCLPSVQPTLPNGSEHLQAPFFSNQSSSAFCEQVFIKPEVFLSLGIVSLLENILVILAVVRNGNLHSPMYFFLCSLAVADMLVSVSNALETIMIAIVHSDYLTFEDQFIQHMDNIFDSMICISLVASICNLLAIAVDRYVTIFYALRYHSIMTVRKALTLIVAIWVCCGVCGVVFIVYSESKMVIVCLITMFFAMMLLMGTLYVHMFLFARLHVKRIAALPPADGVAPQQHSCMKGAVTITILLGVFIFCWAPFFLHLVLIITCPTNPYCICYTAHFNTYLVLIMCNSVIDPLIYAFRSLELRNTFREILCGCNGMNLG
3',5'-cyclic-AMP phosphodiesterase 4D, sequence (Q08499 whole entry): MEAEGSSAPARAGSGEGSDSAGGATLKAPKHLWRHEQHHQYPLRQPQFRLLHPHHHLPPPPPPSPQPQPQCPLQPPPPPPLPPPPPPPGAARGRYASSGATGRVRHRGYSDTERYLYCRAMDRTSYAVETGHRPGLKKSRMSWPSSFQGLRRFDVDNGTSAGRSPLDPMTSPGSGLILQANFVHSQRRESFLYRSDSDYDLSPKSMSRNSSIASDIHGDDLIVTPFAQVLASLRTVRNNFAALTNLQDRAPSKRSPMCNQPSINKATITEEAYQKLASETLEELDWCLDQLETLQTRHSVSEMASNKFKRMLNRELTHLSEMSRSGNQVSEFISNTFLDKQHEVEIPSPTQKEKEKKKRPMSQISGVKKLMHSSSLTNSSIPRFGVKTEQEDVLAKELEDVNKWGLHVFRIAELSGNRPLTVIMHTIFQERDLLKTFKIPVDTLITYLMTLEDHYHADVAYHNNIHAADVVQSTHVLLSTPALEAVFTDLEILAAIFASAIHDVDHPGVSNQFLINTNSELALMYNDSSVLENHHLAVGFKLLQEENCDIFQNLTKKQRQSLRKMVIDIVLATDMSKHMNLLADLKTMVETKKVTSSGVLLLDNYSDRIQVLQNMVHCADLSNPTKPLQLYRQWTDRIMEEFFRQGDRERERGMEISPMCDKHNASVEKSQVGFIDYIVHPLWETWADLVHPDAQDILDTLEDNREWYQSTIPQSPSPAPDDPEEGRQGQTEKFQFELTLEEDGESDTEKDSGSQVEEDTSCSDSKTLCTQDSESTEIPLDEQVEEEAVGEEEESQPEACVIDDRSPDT

Turning to `OCC(O)COc1ccc(Cl)cc1` (stereo not drawn), the AC50 in assay [1] is > 10 µM; in assay [2] it was > 10 µM; in assay [3], > 30 µM; in assay [4] it was > 10 µM; in assay [5], > 10 µM; in assay [6], > 10 µM. Further, in assay [7], the AC50 was > 10 µM.
In the case of `C[C@@H](Cc1ccccc1)N(C)Cc1ccccc1` [BENZPHETAMINE], the AC50 in assay [1] was > 10 µM; in assay [2], > 10 µM; in assay [3] it was > 30 µM; in assay [4], > 10 µM; in assay [5], > 10 µM; in assay [6], > 10 µM. Also, the AC50 in assay [7] was > 10 µM.
With `CN(Cc1ccc(C(C)(C)C)cc1)Cc1cccc2ccccc12` [BUTENAFINE], the AC50 is > 10 µM in assay [1]; > 30 µM in assay [2]; > 30 µM in assay [3]; > 10 µM in assay [4]; > 10 µM in assay [6]; > 10 µM in assay [7].
In the case of `CC(=O)OCC1=C(C(=O)O)N2C(=O)[C@@H](NC(=O)CSc3ccncc3)[C@H]2SC1` [CEPHAPIRIN], the AC50 in assay [1] is > 10 µM; in assay [2] it was > 30 µM; in assay [3], > 30 µM; in assay [4] it was > 10 µM; in assay [5] it was > 10 µM; in assay [6] it was > 10 µM. Moreover, the concentration at half-maximal activity (AC50) in assay [7] was > 10 µM.
With `CC1CC(OC(=O)C(O)c2ccccc2)CC(C)(C)C1` (stereo not drawn) [CYCLANDELATE], the AC50 in assay [1] is > 10 µM; in assay [2], > 30 µM; in assay [3] it was > 30 µM; in assay [4], > 10 µM; in assay [6], > 10 µM; in assay [7] it was > 10 µM.
`CCC1(C)CC(=O)NC1=O` (stereo not drawn) [ETHOSUXIMIDE]: the AC50 in assay [1] was > 10 µM; in assay [2], > 10 µM; in assay [3], > 30 µM; in assay [4], > 10 µM; in assay [6], > 10 µM; in assay [7], > 10 µM.
Consider `Cc1cnc(Nc2ccc(OCCN3CCCC3)cc2)nc1Nc1cccc(S(=O)(=O)NC(C)(C)C)c1` [FEDRATINIB], for which the AC50 in assay [1] is > 10 µM; in assay [3], 0.22 µM; in assay [4], > 30 µM; in assay [8], > 30 µM; in assay [5] it was > 30 µM; in assay [6], > 30 µM. Moreover, the AC50 in assay [7] came to 7.17 µM.
Take `CCOC(=O)C1=C(C)NC(C)=C(C(=O)OC)C1c1cccc(Cl)c1Cl` (stereo not drawn) [FELODIPINE]: the AC50 in assay [1] is > 10 µM; in assay [3], 3.2 µM; in assay [4], > 30 µM; in assay [8], > 30 µM; in assay [5], > 10 µM; in assay [6], > 30 µM. Moreover, in assay [7], the AC50 was > 30 µM.
Turning to `CN1C2CCCC1CC(NC(=O)c1nn(C)c3ccccc13)C2` (stereo not drawn) [GRANISETRON], the AC50 in assay [1] is > 10 µM; in assay [3] it was > 10 µM; in assay [4], > 30 µM; in assay [8] it was > 30 µM; in assay [5], > 10 µM; in assay [6], > 30 µM. Moreover, the AC50 in assay [7] is > 30 µM.
Regarding `N=C(N)NC(=O)Cc1c(Cl)cccc1Cl` [GUANFACINE], the AC50 in assay [1], in assay [3], in assay [4], in assay [8], in assay [5] and in assay [6] was > 30 µM throughout. Moreover, in assay [7], the AC50 is > 30 µM.
As for `COc1ccc2c3c1O[C@H]1C(=O)CC[C@H]4[C@@H](C2)N(C)CC[C@]314` [HYDROCODONE], the AC50 in assay [1] is > 10 µM; in assay [3] it was 9.5 µM; in assay [4], > 30 µM; in assay [8], > 30 µM; in assay [5], > 10 µM; in assay [6] it was > 30 µM. Further, the AC50 in assay [7] is > 30 µM.
Turning to `CC(=O)N1CCN(c2ccc(OCC3COC(Cn4ccnc4)(c4ccc(Cl)cc4Cl)O3)cc2)CC1` (stereo not drawn) [KETOCONAZOLE], the AC50 in assay [2] is > 10 µM; in assay [3] it was > 10 µM; in assay [4], > 10 µM; in assay [5], > 10 µM; in assay [6], > 10 µM; in assay [7], > 30 µM.
In the case of `CC(C)(C)NCC(O)COc1cccc2c1CC(O)C(O)C2` (stereo not drawn) [NADOLOL], the AC50 in assay [1] is > 10 µM; in assay [2] it was > 10 µM; in assay [3], > 30 µM; in assay [4], > 10 µM; in assay [6], > 10 µM; in assay [7], > 10 µM.
In the case of `CC1NCCOC1c1ccccc1` (stereo not drawn) [PHENMETRAZINE], the AC50 in assay [1] is > 10 µM; in assay [3], > 30 µM; in assay [4], > 30 µM; in assay [8], > 30 µM; in assay [5], > 30 µM; in assay [6] it was > 30 µM. Besides, in assay [7], the AC50 was > 30 µM.
As for `CC(C)(N)Cc1ccccc1` [PHENTERMINE], the AC50 in assay [1] was > 10 µM; in assay [3] it was > 30 µM; in assay [4], > 30 µM; in assay [8], > 30 µM; in assay [5], > 30 µM; in assay [6] it was > 30 µM. Moreover, the AC50 in assay [7] was > 30 µM.
On to `Nc1ccc(S(=O)(=O)Nc2ncccn2)cc1` [SULFADIAZINE], for which the AC50 in assay [1] was > 10 µM; in assay [2], > 10 µM; in assay [3], > 30 µM; in assay [4] it was > 10 µM; in assay [6], > 10 µM; in assay [7], > 10 µM.
Turning to TEPRENONE, the AC50 in assay [1] was > 10 µM; in assay [3], > 30 µM; in assay [4], 16.1 µM; in assay [8] it was > 30 µM; in assay [5], > 30 µM; in assay [6] it was > 30 µM. For the same compound, the AC50 in assay [7] was > 30 µM.

As usually defined, the AC50 is the concentration at which the activity in the assay is half-maximal.

Source of the values: ChEMBL document CHEMBL5291721, “A preclinical secondary pharmacology resource illuminates target-adverse drug reaction associations of marketed drugs” (Nat Commun, 2023).
